Reference: ChEMBL document CHEMBL3885861, “Open TG-GATES”

Species on record: Rattus norvegicus
Assay: Open TG-GATES - Regimen: Daily Repeat
Format: toxicity, organism-based, Sprague-Dawley
Parameters: regimen Daily Repeat, gender Male, age 6 weeks
Settings: in vivo, po, 10 mg/kg, […], route gavage, dose level Low; for KIDNEY_L / KIDNEY_R / KIDNEY_TOTAL: tissue Kidney; for LIVER: tissue Liver; for A/G / ALP / ALT / AST / BUN / CRE / Ca / Cl / DBIL / GLC / IP / K / LDH / Na / PL / RALB / TBIL / TC / TG / TP / gamma-GTP: tissue Plasma

CC1=C(/C=C/C(C)=C/C=C/C(C)=C/CO)C(C)(C)CCC1 [RETINOL]
Lym (tissue Blood, time 28 day): 82.8% | MCH (tissue Blood, time 28 day): 19.8 pg | MCHC (tissue Blood, time 28 day): 36.2% | MCV (tissue Blood, time 28 day): 54.6 fL | Mono (tissue Blood, time 28 day): 1.6% | Neu (tissue Blood, time 28 day): 14.6% | PT (tissue Blood, time 28 day): 15.8 s | Plat (tissue Blood, time 28 day): 102.3 x10_4/uL | RBC (tissue Blood, time 28 day): 756 x10_4/ul | Ret (tissue Blood, time 28 day): 2.4% | WBC (tissue Blood, time 28 day): 86 x10_2/uL | KIDNEY_L (time 7 day): 1.1 g | KIDNEY_R (time 7 day): 1.1 g | KIDNEY_TOTAL (time 7 day): 2.2 g | KIDNEY_L (time 14 day): 1.1 g | KIDNEY_R (time 14 day): 1.2 g | KIDNEY_TOTAL (time 14 day): 2.3 g | KIDNEY_L (time 28 day): 1.3 g | KIDNEY_R (time 28 day): 1.3 g | KIDNEY_TOTAL (time 28 day): 2.6 g | LIVER (time 7 day): 12.5 g | LIVER (time 14 day): 12.9 g | LIVER (time 28 day): 14.9 g | A/G (time 7 day): 1.3 | ALP (time 7 day): 1621.4 IU/L | ALT (time 7 day): 41.6 IU/L | AST (time 7 day): 68.2 IU/L | BUN (time 7 day): 17.2 mg/dL | CRE (time 7 day): 0.2 mg/dL | Ca (time 7 day): 10.7 mg/dL | Cl (time 7 day): 107.2 meq/L | DBIL (time 7 day): 0 mg/dL | GLC (time 7 day): 193.2 mg/dL | IP (time 7 day): 6.2 mg/dL | K (time 7 day): 4.1 meq/L | LDH (time 7 day): 216 IU/L | Na (time 7 day): 142.4 meq/L | PL (time 7 day): 157.4 mg/dL | RALB (time 7 day): 3.2 g/dL | TBIL (time 7 day): 0.006 mg/dL | TC (time 7 day): 76.4 mg/dL | TG (time 7 day): 160.4 mg/dL | TP (time 7 day): 5.7 g/dL | gamma-GTP (time 7 day): 1.4 IU/L | A/G (time 14 day): 1.2 | ALP (time 14 day): 1426.6 IU/L | ALT (time 14 day): 42.8 IU/L | AST (time 14 day): 70.6 IU/L | BUN (time 14 day): 17.6 mg/dL | CRE (time 14 day): 0.2 mg/dL | Ca (time 14 day): 10.6 mg/dL | Cl (time 14 day): 108.4 meq/L | DBIL (time 14 day): 0 mg/dL | GLC (time 14 day): 195 mg/dL | IP (time 14 day): 5.7 mg/dL | K (time 14 day): 4 meq/L | LDH (time 14 day): 181.2 IU/L | Na (time 14 day): 143.2 meq/L | PL (time 14 day): 150 mg/dL | RALB (time 14 day): 3.1 g/dL | TBIL (time 14 day): 0.004 mg/dL | TC (time 14 day): 70.2 mg/dL | TG (time 14 day): 156.8 mg/dL | TP (time 14 day): 5.7 g/dL | gamma-GTP (time 14 day): 0.8 IU/L | A/G (time 28 day): 1.2 | ALP (time 28 day): 1127 IU/L | ALT (time 28 day): 46.2 IU/L | AST (time 28 day): 69.4 IU/L | BUN (time 28 day): 15.2 mg/dL | CRE (time 28 day): 0.2 mg/dL | Ca (time 28 day): 10.4 mg/dL | Cl (time 28 day): 108.4 meq/L | DBIL (time 28 day): 0 mg/dL | GLC (time 28 day): 182.8 mg/dL | IP (time 28 day): 5.8 mg/dL | K (time 28 day): 4.1 meq/L | LDH (time 28 day): 167.2 IU/L | Na (time 28 day): 142 meq/L | PL (time 28 day): 140.2 mg/dL | RALB (time 28 day): 3.2 g/dL | TBIL (time 28 day): 0.016 mg/dL | TC (time 28 day): 67.8 mg/dL | TG (time 28 day): 168.2 mg/dL | TP (time 28 day): 6 g/dL | gamma-GTP (time 28 day): 1.4 IU/L
